US20020015943A1, “Assays, methods and means relating to the modulation of levels of nuclear beta-catenin” (priority 2000, published 2002)
“Also recorded” adds a separate entry of the source.

B1: HC: central fragment from human APC (codons 1379-2080) N-terminally tagged with GFP, expressed by transfection (protein, UniProt P25054 1379-2080, looked up, fragment)
chain: ETPLMFSRCTSVSSLDSFESRSIASSVQSEPCSGMVSGIISPSDLPDSPGQTMPPSRSKTPPPPPQTAQTKREVPKNKAPTAEKRESGPKQAAVNAAVQRVQVLPDADTLLHFATESTPDGFSCSSSLSALSLDEPFIQKDVELRIMPPVQENDNGNETESEQPKESNENQEKEAEKTIDSEKDLLDDSDDDDIEILEECIISAMPTKSSRKAKKPAQTASKLPPPVARKPSQLPVYKLLPSQNRLQPQKHVSFTPGDDMPRVYCVEGTPINFSTATSLSDLTIESPPNELAAGEGVRGGAQSGEFEKRDTIPTEGRSTDEAQGGKTSSVTIPELDDNKAEEGDILAECINSAMPKGKSHKPFRVKKIMDQVQQASASSSAPNKNQLDGKKKKPTSPVKPIPQNTEYRTRVRKNADSKNNLNAERVFSDNKDSKKQNLKNNSKVFNDKLPNNEDRVRGSFAFDSPHHYTPIEGTPYCFSRNDSLSSLDFDDDDVDLSREKAELRKAKENKESEAKVTSHTELTSNQQSANKTQAIAKQPINRGQPKPILQKQSTFPQSSKDIPDRGAATDEKLQNFAIENTPVCFSHNSSLSSLSDIDQENNNKENEPIKETEPPDSQGEPSKPQASGYAPKSFHVEDTPVCFSRNSSLSSLSIDSEDDLLQECISSAMPKKKKPSRLKGDNEKHSPRNMGGILGEDLTLDL
modifications: N-terminal GFP tag
notes: central fragment from human APC (codons 1379-2080) N-terminally tagged with GFP, expressed by transfection

Experiments:
[1] = system: nuclear β-catenin in SW480 cells; test: Complementation assay in transfected SW480 cells, immunofluorescence of APC construct and β-catenin; format: cell-based
From the text: All constructs were inserted into pEGFP-C2 (Clontech), producing N-terminally tagged GFP fusions. Each construct (except HC and HCala, see below) also contains a triple hemagglutinin (HA) tag inserted between GFP and APC coding sequence. In coreNES, the following NES-encoding sequences were inserted between the HA tag and the ARDcore (first of a pair human, second Drosophila, bold NES residues were substituted to alanine in coreNESala; in coreNEScon, underlined conserved non-NES residues were substituted by alanine): 203, […], […]; 20R4, […], […]; 20R7, […]. coreNESmin from Drosophila 20R4 contains ISGLSHLTVGSA (bold residues substituted by alanine in the mutant version). We also fused the putative NES from Drosophila pseudoR20 (FIG. 1, arrowhead) to ARDcore, but this NES candidate ([…]) was non-functional. For the complementation assays in SW480 cells, a central fragment from human APC (codons 1379-2080) was N-terminally tagged with GFP (HC, see above). The above described alanine substitutions of 20R-linked NESs were introduced into HC, and into GFP-E-APC, using the Quik-Change Site-Directed Mutagenesis Kit (Stratagene), HCala1 and HCala2 are partial mutants retaining one and two NESs, respectively (see text) All constructs were verified by sequencing.
Monkey COS cells were grown in DMEM medium (supplemented with 10% fetal calf serum), and transfected with FuGENE™ (Morin, P. J. et al. Science 275, 1787-1790 (1997)) Transfection Reagent (Roche). SW480 and HCT116 cells were grown in Leibovitz's L15 medium (with 10% fetal calf serum), and transfected with Lipofectamine (Life Technologies Inc.). 0.4 or […] DNA was used per transfection of COS or SW480 cells (in 35 mm culture wells), respectively. Transfected cells were harvested for analysis after 24-48 hours. […]
(§1) Qualitative analysis was thus backed up by quantitative evaluation of 10-20 randomly chosen fields in which each individual healthy cell was scored. Ratios of nuclear to cytoplasmic fluorescence levels were determined.

[2] = system: nuclear export receptor CRM1; test: Subcellular distribution of GFP-tagged APC constructs in transfected COS cells with or without LMB; format: cell-based, monkey
From the text: All constructs were inserted into pEGFP-C2 (Clontech), producing N-terminally tagged GFP fusions. Each construct (except HC and HCala, see below) also contains a triple hemagglutinin (HA) tag inserted between GFP and APC coding sequence. In coreNES, the following NES-encoding sequences were inserted between the HA tag and the ARDcore (first of a pair human, second Drosophila, bold NES residues were substituted to alanine in coreNESala; in coreNEScon, underlined conserved non-NES residues were substituted by alanine): 203, […], […]; 20R4, […], […]; 20R7, […]. coreNESmin from Drosophila 20R4 contains […] (bold residues substituted by alanine in the mutant version). […] For the complementation assays in SW480 cells, a central fragment from human APC (codons 1379-2080) was N-terminally tagged with GFP (HC, see above). The above described alanine substitutions of 20R-linked NESs were introduced into HC, and into GFP-E-APC, using the Quik-Change Site-Directed Mutagenesis Kit (Stratagene), HCala1 and HCala2 are partial mutants retaining one and two NESs, respectively (see text) All constructs were verified by sequencing.
Monkey COS cells were grown in DMEM medium (supplemented with 10% fetal calf serum), and transfected with FuGENE™ (Morin, P. J. et al. Science 275, 1787-1790 (1997)) Transfection Reagent (Roche). SW480 and HCT116 cells were grown in Leibovitz's L15 medium (with 10% fetal calf serum), and transfected with Lipofectamine (Life Technologies Inc.). 0.4 or […] DNA was used per transfection of COS or SW480 cells (in 35 mm culture wells), respectively. Transfected cells were harvested for analysis after 24-48 hours. For staining, cells were either fixed with chilled methanol for 10 min. at −20° C. or fixed with 4% paraformaldehyde (freshly prepared, in phosphate buffered saline) for 30 min. Cells were then permeabilised with 0.1% Triton X-100 and blocked with bovine serum albumin for 15 min. each, and subsequently incubated at room temperature with primary and secondary antibody for 60 and 30 min, respectively. COS cells were treated with LMB (50 ng/ml)) for 1-2 hours 24 hours after transfection, SW480 cells for 2 hours 48 hours after transfection.
as §1

[3] = biological target: T1, nuclear export receptor CRM1 (Drosophila melanogaster, UniProt Q9TVM2); test: Endogenous E-APC localisation in LMB-treated permeabilised Drosophila embryos; format: cell-based; conditions: 80 ng/ml LMB 60 min
T1 construct: 0-6 hours old embryos were permeabilised in octane; from tissue; host or cells: octane-permeabilised Drosophila embryos, 0-6 hours old
T1 sequence (Q9TVM2 whole entry): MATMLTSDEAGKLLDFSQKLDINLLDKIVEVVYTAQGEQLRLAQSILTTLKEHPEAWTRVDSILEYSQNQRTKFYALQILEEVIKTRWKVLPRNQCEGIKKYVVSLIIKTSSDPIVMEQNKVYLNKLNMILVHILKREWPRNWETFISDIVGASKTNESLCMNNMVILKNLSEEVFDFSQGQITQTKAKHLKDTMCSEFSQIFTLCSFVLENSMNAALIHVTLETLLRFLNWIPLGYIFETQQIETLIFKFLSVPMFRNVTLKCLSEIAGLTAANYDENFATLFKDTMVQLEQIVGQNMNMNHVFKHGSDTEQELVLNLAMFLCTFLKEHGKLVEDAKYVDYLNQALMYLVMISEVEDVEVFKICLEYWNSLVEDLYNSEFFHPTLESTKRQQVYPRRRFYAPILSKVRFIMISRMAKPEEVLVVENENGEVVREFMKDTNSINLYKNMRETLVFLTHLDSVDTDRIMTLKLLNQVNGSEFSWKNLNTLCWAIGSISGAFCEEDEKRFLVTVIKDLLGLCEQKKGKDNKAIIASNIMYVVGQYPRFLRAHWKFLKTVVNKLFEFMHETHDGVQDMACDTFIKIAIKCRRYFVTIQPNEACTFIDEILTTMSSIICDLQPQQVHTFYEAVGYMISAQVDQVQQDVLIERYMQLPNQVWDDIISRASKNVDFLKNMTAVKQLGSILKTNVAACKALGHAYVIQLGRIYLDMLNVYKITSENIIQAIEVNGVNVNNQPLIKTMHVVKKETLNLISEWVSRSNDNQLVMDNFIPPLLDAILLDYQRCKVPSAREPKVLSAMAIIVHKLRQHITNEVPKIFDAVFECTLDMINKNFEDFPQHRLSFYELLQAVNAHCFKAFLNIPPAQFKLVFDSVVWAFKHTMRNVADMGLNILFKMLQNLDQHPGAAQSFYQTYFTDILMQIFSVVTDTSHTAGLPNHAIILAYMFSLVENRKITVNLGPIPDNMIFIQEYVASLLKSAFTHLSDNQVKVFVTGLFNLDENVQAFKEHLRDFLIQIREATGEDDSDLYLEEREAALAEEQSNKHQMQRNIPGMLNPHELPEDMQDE
Procedure: Drosophila embryos were fixed and stained as described (Yu, X. et al. Nature Cell Biol 3, 144-151 (1999)). For drug treatments, 0-6 hours old embryos were permeabilised in octane (Lantz, V. A. et al. Mech Dev 85, 111-122 (1999)) and subsequently incubated for 60 min. with 80 ng/ml LMB. Controls were octane-permeabilised and incubated in solvent alone (<1% ethanol).
The following antibodies were used: rabbit anti-E-APC (1:10′000) (Yu, X. et al. Nature Cell Biol 3, 144-151 (1999), rabbit anti-APC (1:700) (Näthke, I. S. et al. J Cell Biol 134, 165-179 (1996)), mouse anti-lamin (1:150), mouse anti-β-catenin (1:500; Transduction Laboratories), Alexa Red and Green (1:500; Molecular Probes). images were collected on an MRC 1024 confocal microscope.

nuclear β-catenin = test: TOPFLASH/FOPFLASH luciferase transcriptional read-out of nuclear β-catenin in SW480 cells; format: cell-based; conditions: TOPFLASH, versus mock-transfected
Procedure: pTOPFLASH and pFOPFLASH were used for transcriptional read-out assays of nuclear β-catenin in SW480 cells (Korinek, V. et al. Science 275, 1784-1787 (1997)). pRL-CMV served as an internal control, and luciferase assays were performed with the Dual Luciferase™ Reporter Assay System (Promega). Relative luciferase activities (x100) were obtained by dividing TOP- or FOP-FLASH values by pRL-CMV values (FIG. 3). TOP-FLASH values reflect averages of 2-4 independent transfections, their standard deviations are given.

[4] = HC-transfected SW480 cells, LMB 2 hours

Molecule | effect on localisation of HC [1, 4] | effect on reduction of nuclear β-catenin by HC [1, 4] | effect on nuclear exclusion / distribution of Cterm1 and Cterm2 ([2]; LMB 50 ng/ml 1-2 hours) | effect on nuclear exclusion of coreNES fusions ([2]; LMB 50 ng/ml 1-2 hours) | effect on subcellular distribution of ARDcore and coreNESala mutants ([2]; LMB 50 ng/ml 1-2 hours) | effect on distribution of full-length E-APC ([2]; LMB treatment (not shown)) | effect on localisation of endogenous E-APC [3] | reduction of nuclear β-catenin by transfected construct ([1]; transfected SW480 cells, immunofluorescence) | reduction of luciferase activity (transcriptional activity of nuclear β-catenin) (nuclear β-catenin)
CCC(=C/[C@H](C)C/C=C/C(C)=C/[C@@H](C)C(=O)[C@@H](C)[C@H](O)[C@@H](C)C/C(C)=C/C(=O)O)/C=C/[C@@H]1OC(=O)C=C[C@@H]1C [LMB, leptomycin B] | caused nuclear retention of HC | attenuated the reduction of nuclear β-catenin by HC | blocked; also recorded: even distribution of Cterm1 and 2 throughout cytoplasm and nucleus | abolishes the nuclear exclusion of all coreNES fusions | neither affected | accumulated to some extent in the nucleus | E-APC was found to accumulate in the nuclei; also recorded: endogenous E-APC is retained efficiently in nuclei |  | 
B1 |  |  |  |  |  |  |  | strongly reduced nuclear β-catenin | much reduced
